Assays:
Carbonic anhydrase 1 = Carbonic anhydrase 1 (Homo sapiens, UniProt P00915); test: Inhibition of human CA-I incubated for 15 mins by stopped-flow CO2 hydration assay
[1] = target: Carbonic anhydrase 5A, mitochondrial (Homo sapiens, UniProt P35218); test: Inhibition of human CA-VA incubated for 15 mins by stopped-flow CO2 hydration assay
Carbonic anhydrase 9 = Carbonic anhydrase 9 (Homo sapiens, UniProt Q16790)
Description: Inhibition of human CA-IX incubated for 15 mins by stopped-flow CO2 hydration assay

Carbonic anhydrase 7 = Carbonic anhydrase 7 (Homo sapiens, UniProt P43166); test: Inhibition of human CA-VII incubated for 15 mins by stopped-flow CO2 hydration assay
Homo sapiens [2] = species on record: Homo sapiens; test: Inhibition of […] human CA-II H94C mutant using p-nitrophenylacetate as substrate at 500 uM preincubated for 10 mins followed by substrate addition by absorbance based assay relative to control
Homo sapiens [3] = species on record: Homo sapiens; test: Inhibition of […] human CA-II H94D mutant using p-nitrophenylacetate as substrate at 500 uM preincubated for 10 mins followed by substrate addition by absorbance based assay relative to control
Carbonic anhydrase 2 [4] = target: T1, Carbonic anhydrase 2 (Homo sapiens, UniProt P00918); test: Inhibition of wild-type human CA-II using p-nitrophenylacetate as substrate preincubated for 15 mins followed by substrate addition measured for 20 mins by absorbance based assay
[5] = Inhibition of […] human CA-II L198G mutant using p-nitrophenylacetate as substrate preincubated for 15 mins followed by substrate addition measured for 20 mins by absorbance based assay
Carbonic anhydrase 2 [6] = target: T1, Carbonic anhydrase 2; test: Inhibition of human CA-II incubated for 15 mins by stopped-flow CO2 hydration assay
Carbonic anhydrase 12 = Carbonic anhydrase 12 (Homo sapiens, UniProt O43570); test: Inhibition of human CA-XII incubated for 15 mins by stopped-flow CO2 hydration assay
Carbonic anhydrase 2 [7] = target: T1, Carbonic anhydrase 2; test: Inhibition of wild-type human CA-II using p-nitrophenylacetate as substrate at 500 uM preincubated for 10 mins followed by substrate addition by absorbance based assay relative to control
[8] = Antiproliferative activity against human PBMC cells assessed as decrease in cell viability at 10 uM incubated for 48 hrs by Cell Titer Glo assay; format: toxicity, cell-based
[9] = Induction of apoptosis in human BZB-resistant NCI-H929 cells assessed as viable cells at 2.5 uM incubated for 48 hrs by Annexin V/7-AAD staining based FACS analysis (reference value: 86.7 %); format: functional; conditions: BZB-resistant […] cell, read-out: Activity
[10] = Induction of apoptosis in human BZB-resistant NCI-H929 cells assessed as viable cells at 5 uM incubated for 48 hrs by Annexin V/7-AAD staining based FACS analysis (reference value: 86.7 %); format: functional; conditions: BZB-resistant […] cell, read-out: Activity
[11] = Induction of apoptosis in human BZB-resistant NCI-H929 cells assessed as viable cells at 10 uM incubated for 48 hrs by Annexin V/7-AAD staining based FACS analysis (reference value: 86.7 %); format: functional; conditions: BZB-resistant […] cell, read-out: Activity

Sequence of Carbonic anhydrase 5A, mitochondrial (P35218 whole entry): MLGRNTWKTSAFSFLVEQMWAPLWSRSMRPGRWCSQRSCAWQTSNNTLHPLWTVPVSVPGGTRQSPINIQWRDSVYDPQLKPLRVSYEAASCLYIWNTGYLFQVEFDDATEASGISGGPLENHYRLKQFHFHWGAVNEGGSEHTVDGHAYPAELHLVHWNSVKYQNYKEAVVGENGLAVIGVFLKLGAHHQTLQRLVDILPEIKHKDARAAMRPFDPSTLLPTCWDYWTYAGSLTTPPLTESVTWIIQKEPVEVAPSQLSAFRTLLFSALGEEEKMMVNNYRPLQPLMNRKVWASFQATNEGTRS
Sequence of Carbonic anhydrase 1 (P00915 whole entry): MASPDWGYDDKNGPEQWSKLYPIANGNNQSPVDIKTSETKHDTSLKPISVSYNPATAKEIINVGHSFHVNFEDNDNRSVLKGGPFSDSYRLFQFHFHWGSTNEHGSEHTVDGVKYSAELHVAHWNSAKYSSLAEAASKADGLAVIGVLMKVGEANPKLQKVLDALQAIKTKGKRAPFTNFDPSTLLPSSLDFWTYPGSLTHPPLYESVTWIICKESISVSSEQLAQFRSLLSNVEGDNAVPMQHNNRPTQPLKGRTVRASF
Sequence of Carbonic anhydrase 7 (P43166 whole entry): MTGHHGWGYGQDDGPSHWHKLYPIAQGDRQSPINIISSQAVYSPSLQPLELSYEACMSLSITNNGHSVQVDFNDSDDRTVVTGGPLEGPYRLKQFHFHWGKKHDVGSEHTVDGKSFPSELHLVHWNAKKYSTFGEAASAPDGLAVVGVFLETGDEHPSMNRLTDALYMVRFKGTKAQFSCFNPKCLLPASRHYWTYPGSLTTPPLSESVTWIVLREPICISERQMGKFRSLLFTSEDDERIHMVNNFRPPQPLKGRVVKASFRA
Sequence of Carbonic anhydrase 12 (O43570 whole entry): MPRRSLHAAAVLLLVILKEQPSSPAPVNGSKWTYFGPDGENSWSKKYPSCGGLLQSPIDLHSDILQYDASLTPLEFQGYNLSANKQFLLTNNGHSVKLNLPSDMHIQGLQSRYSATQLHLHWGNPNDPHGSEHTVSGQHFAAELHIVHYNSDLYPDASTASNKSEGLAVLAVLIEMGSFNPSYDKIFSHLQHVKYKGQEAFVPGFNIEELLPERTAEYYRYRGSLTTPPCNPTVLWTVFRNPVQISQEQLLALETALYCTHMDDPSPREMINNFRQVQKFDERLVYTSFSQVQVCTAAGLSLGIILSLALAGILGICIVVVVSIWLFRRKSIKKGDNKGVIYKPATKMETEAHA

SMILES	Ki (Carbonic anhydrase 1)	Ki [1]	Ki (Carbonic anhydrase 9)	Ki (Carbonic anhydrase 7)	also measured
O=c1cccccc1OCc1ccc(Br)cc1	> 100 µM	> 100 µM	37.7 µM		
O=c1cccccc1OCc1ccc([N+](=O)[O-])cc1	6.22 µM	> 100 µM	13.3 µM	> 100 µM	
O=c1cccccc1O [TROPOLONE]	> 100 µM	> 100 µM	> 100 µM	> 100 µM	inhibition (Homo sapiens [2]): 0%; inhibition (Homo sapiens [3]): 47%; Ki (Carbonic anhydrase 2 [4]): 1350 µM; Ki [5]: 245 µM; Ki (Carbonic anhydrase 2 [6]): > 100 µM; Ki (Carbonic anhydrase 12): > 100 µM
CC(C)c1cccc(=O)c(O)c1 [HINOKITIOL]	4.98 µM	7.5 µM	23.9 µM	> 100 µM	inhibition (Carbonic anhydrase 2 [7]): 16%; inhibition (Homo sapiens [2]): 0%; inhibition (Homo sapiens [3]): 47%; Ki (Carbonic anhydrase 2 [6]): 90.6 µM; Ki (Carbonic anhydrase 12): > 100 µM
CC(C)c1cccc(=O)c(OCc2ccccc2[N+](=O)[O-])c1	> 100 µM	8.96 µM	1.41 µM	5.41 µM	
CC(C)c1cccc(OCc2ccc(Br)cc2)c(=O)c1	> 100 µM	7.95 µM	0.26 µM	0.96 µM	
CC(C)c1cccc(OCc2ccccc2[N+](=O)[O-])c(=O)c1		21.7 µM	0.94 µM	6.18 µM	
O=c1cccccc1OCCCCl	> 100 µM		8.94 µM	5.2 µM	
CC(C)c1cccc(=O)c(OCc2ccccc2C(F)(F)F)c1		83.5 µM		> 100 µM	
Cc1ccc(S(=O)(=O)Oc2cccc(C(C)C)cc2=O)cc1	> 100 µM	4.45 µM	0.4 µM	5.27 µM	
CC(C)c1cccc(OCc2ccccc2C(F)(F)F)c(=O)c1		> 100 µM	> 100 µM	> 100 µM	
O=c1cccccc1OCc1ccccc1[N+](=O)[O-]	8.01 µM	> 100 µM	> 100 µM	> 100 µM	
CC(C)c1cccc(OCCCCCOc2cccc(C(C)C)cc2=O)c(=O)c1	> 100 µM	31.6 µM	1.33 µM	7.1 µM	
O=C(Oc1cccccc1=O)c1ccc([N+](=O)[O-])cc1	84.4 µM		> 100 µM	> 100 µM	
N#Cc1ccc(COc2cccccc2=O)cc1	8.31 µM	> 100 µM	> 100 µM	> 100 µM	
Cc1ccc(S(=O)(=O)Oc2cccccc2=O)cc1	94.2 µM	> 100 µM	> 100 µM	> 100 µM	
O=C(Oc1cccccc1=O)C12CC3CC(CC(C3)C1)C2		85.6 µM	43.5 µM		
O=c1cccccc1OCc1cccc2ccccc12	> 100 µM		2.28 µM	2.82 µM	
CC(C)c1cccc(OCc2cccc3ccccc23)c(=O)c1	> 100 µM	89.4 µM	0.53 µM	3.95 µM	
O=c1cccccc1OCc1ccccc1C(F)(F)F	> 100 µM	6.63 µM	4.3 µM	6.19 µM	
O=c1cccccc1OCCCCCBr	> 100 µM		0.54 µM	1.52 µM	
O=c1cccccc1OCc1cccc([N+](=O)[O-])c1	> 100 µM		34.5 µM	> 100 µM	
CC(C)c1cccc(OC(=O)c2ccc([N+](=O)[O-])cc2)c(=O)c1	> 100 µM	> 100 µM	0.37 µM	9.6 µM	
O=c1cccccc1S					Ki (Carbonic anhydrase 2 [4]): 96 µM; Ki [5]: 61 µM
O=C(O)COc1cccccc1=O		8.11 µM	25.6 µM		
Cc1ccc(S(=O)(=O)Oc2cc(C(C)C)cccc2=O)cc1	> 100 µM		0.42 µM	9.33 µM	Activity [8]: Non-toxic; viability at 2.5 µM [9]: 78.1%; viability at 5 µM [10]: 74.5%; viability at 10 µM [11]: 36.7%
C#CCOc1cccccc1=O	0.05 µM	> 100 µM			

Reference: ChEMBL document CHEMBL6134845, “O-derivatization of natural tropolone and β-thujaplicin leading to effective inhibitors of human carbonic anhydrases IX and XII” (Eur J Med Chem, 2025)
